Results reported in US20170137481A1, “Use of Cell-Permeable Peptide Inhibitors of the JNK Signal Transduction Pathway for the Treatment of Various Diseases” (Xigen Inflammation Ltd., priority 2014, published 2017).

Tests used:
[1] = test system: Endotoxin-Induced Uveitis in Lewis rats; assay: Endotoxin-Induced Uveitis (EIU), action duration after subconjunctival administration; format: in vivo, rat
Source text: The aim of this study was to evaluate the duration of action of SDD-1002 following sub-conjunctival administration in a rat model of EIU.
90 male Lewis rats were used, age approximately 6-8 weeks (at the induction), 4 weeks (at the injection for the Day-28), 5 weeks (at the injection for the Day-21), 6 weeks (at the injection for the Day-14, Day-7 and for the Day 0), 7 weeks (at the injection for Day-2 and Day-1), and housed by five in standard cages. Animals were allocated to the following groups: Group No. Treatment Dose Time-point
Thus, each animal received a single subconjunctival injection of either XG-102 (20 μg/eye), saline (0.9% NaCl) vehicle control or Solumedrol® (20 μg/eye) into each eye. Methylprednisolone (Solumedrol®) is most commonly used in uveitis as sub-conjunctival treatment.
On Day 0, ocular inflammation was induced by a single footpad injection of liposaccharide (LPS, 1 mg/kg, 0.5 mL/kg Sigma # L6511) on anesthetized animals. LPS powder was reconstituted the day of induction. XG-102 was administered by a single injection (20 microgram/5 microL) in each eye on Day-28 or Day-21 or Day-14 or Day-7 or Day-2 or Day-1 or Day 0 (immediately before induction). Saline control and reference item (Solumedrol®; 20 μg/eye) were administered by a single injection in each eye on Day 0 (immediately before induction).
Animals were examined with a slit-lamp before XG-102 administration (baseline) before induction (Day 0) then 24 h after induction (Day 1). The inflammation was graded using a scoring system as described by Devos A., Van Haren M., Verhagen C., Hoek Zema R., Kijlstra A: Systemic anti-tumor necrosis factor antibody treatment exacerbates Endotoxin Induced Uveitis in the rat. Exp. Eye. Res. 1995; 61: 667-675. Briefly, flare, miosis and hypopion were scored for absence (0), or presence (1), iris hyperemia and cells in the anterior chamber were scored for absence (0), or mild (1) or severe presence (2). The maximum score (sum of the five parameter scores) was 7.
At the end of the evaluation (24 h after induction), animals were euthanized by intravenous injection of overdosed pentobarbital. The aqueous humor was collected immediately for each eye. For quantification of Cellular Infiltration in Aqueous Humor (AH), the sample was diluted 10-fold with PBS before detection. The number of infiltrated cells was manually counted after Giemsa staining under microscope.

[2] = test system: light-induced photoreceptor cell death in Sprague-Dawley rats; assay: Photoreceptor light damage in albino rat (ERG, ONL thickness); format: in vivo
Method: The aim of this study was to investigate the dose effect of XG-102 on light-induced photoreceptor cell death.
Test item (XG-102: 30 mg/ml, 3 mg/ml, and 0.3 mg/ml) and vehicle (0.9% NaCl) were administered by intravitreal injection in right eyes the day before induction. The reference (Phenyl-N-test-Butylnitrone (PBN) (50 mg/kg)) and vehicle were intraperitoneally injected 30 min before induction then, 3 times during 12 hours of light exposition, then once after induction. Animals were placed in constant light (7000 lux) for 24 h. Electroretinograms (ERG) were recorded before light treatment and on days 9, 16 and 23 after induction. Eyes were then taken for histology and outer nuclear layer (ONL) thickness assessment. The table below summarizes the allocation of animals in treatment groups:
For the intravitreal injection animals were anesthetized by intramuscular injection of a mixture of xylazine/ketamine. Test item (5 μl) and vehicle (5 μl) were injected in the right eye. The injection was performed under an operating microscope in the supratemporal area at pars plana using a 33G-needle mounted on a 50 μl Hamilton. The filled syringe was mounted into the UltraMicroPump III to achieve accurate injection in microliter range. Reference and vehicle were injected intraperitoneally at a dose volume of 2.5 ml/kg using a 30G-needle mounted on a 1 ml-syringe.
Light Exposure: The rats that had been dark-adapted overnight were exposed for 24 hours to a continuous white fluorescent light (7000 lx) in clear plastic cages. Each cage contained one rat. After exposure, the rats returned to rearing cyclic light conditions.
The body weight of all animals was recorded before the start of the study then at the end of the study. Each day, the general behavior and the aspect of all animals were observed. ERG was recorded before induction and 7, 14 and 21 days after cessation of exposure (Days 9, 16 and 23) on right eyes of dark-adapted and anesthezied animals. The latency times (for a- and b-wave) and the a-wave and b-wave amplitudes were measured for each ERG; the latency times were expressed as millisecond and the a-wave and b-wave as a percentage of the baseline value obtained before light exposure. 15 min before measurement 10 μl Mydriaticum® (0.5% tropicamide) were instilled for pupillary dilatation.
ERG Parameters: • Color: white maximum. • Maximum intensity: 2.6 cd.s/m^2 (0 dB); Duration 0.24 ms; number of flash: 1. • Filter: 50 Hz. • Impedence Threshold: 90 kΩ.
Measurement of the ONL Thickness: After ERG testing, animal was euthanized by an overdose of pentobarbital and the right eyes were enucleated, fixed and embedded in paraffin. Sections (5 μm thick) were performed along the vertical meridian and stained with Trichrome-Masson. The vertical meridian included the optic nerve.
Group mean values and standard deviation were calculated. A statistical Mann and Whitney test was used to evaluate the differences between pair-wise groups. For comparison between time-point into each vehicle groups, a Friedman test was used.

[3] = 20 μg/eye, both eyes treated on the day of induction, 24 h after LPS
[4] = 20 μg/eye, both eyes treated on the day of induction, vs vehicle

Compound: C[C@H]1C[C@@H]2[C@H]([C@@H](O)C[C@@]3(C)[C@H]2CC[C@]3(O)C(=O)CO)[C@@]2(C)C=CC(=O)C=C12 [methylprednisolone, Methylprednisolone]
- clinical score, mean ([1]; 20 μg/eye on Day 0): 2.0±0.2
- clinical score, median ([1]; 20 μg/eye on Day 0): 2
- reduction of clinical score ([1]; 20 μg/eye on Day 0): 50%
- EIU clinical score, Mean ± SEM (n = 20) [1, 3]: 2.0 ± 0.2
- EIU clinical score, Median [1, 3]: 2.0
- Inflammatory cells infiltrated into aqueous humor, Mean ± SEM (n = 20) [1, 3]: 3170 ± 276 cells/μL
- Inflammatory cells infiltrated into aqueous humor, Median [1, 3]: 3385 cells/μL
- Reduction of clinical scores [1, 4]: 50%
- Reduction of leucocytes [1, 4]: 2%

Compound: CC(C)(C)[N+]([O-])=Cc1ccccc1 [PBN, Phenyl-N-tert-Butylnitrone, reference compound]
- recovery of the a-wave (% of baseline) ([2]; 50 mg/kg i.p., Day 9): 70.4%
- recovery of the b-wave (% of baseline) ([2]; 50 mg/kg i.p., Day 9): 100%
- recovery of the a-wave (% of baseline) ([2]; 50 mg/kg i.p., Day 16): 79.6%
- recovery of the b-wave (% of baseline) ([2]; 50 mg/kg i.p., Day 16): 103.6%
- loss of mean ONL thickness versus untreated eyes ([2]; 50 mg/kg i.p., Day 23): 16%
- recovery of the a-wave (% of baseline) ([2]; 50 mg/kg i.p., Day 23): 76.2%
- recovery of the b-wave (% of baseline) ([2]; 50 mg/kg i.p., Day 23): 102.4%
- ERG B-wave amplitude, percent of baseline, Mean ± SD ([2]; rat, in vivo, ip, 50 mg/kg): 100 ± 18.6%
- ONL thickness ([2]; rat, in vivo, ip, 50 mg/kg): 34.05 ± 4.00 μm
- ONL thickness Loss (% comparison with control non-induced eye) ([2]; rat, in vivo, ip, 50 mg/kg): 16%
